Some test systems named below: A549; ACHN; HL-60; HOP-62; HOP-92; IGROV-1; KM12; M19-MEL; Malme-3M; NCI-H23; OVCAR-5; RPMI-8226; SK-MEL-28; SNB-75; U-251; UACC-257; LOX IMVI.
What all share (assay): NCI anticancer screen, dose series, 48 h

The record followed here is ChEMBL document CHEMBL1201862, “PubChem BioAssay data set” (2004).

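Exposure lasted 48 hours, with cells grown in 96-well plates and compounds tested at five concentrations. Abbreviation: GI50, concentration required for 50% inhibition of growth.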 Activity calls are given as the source filed them. Rule as the data show it: active = GI50 up to about 1.1 µM and inactive = higher.

As to `NNC(=O)CNC(=O)c1ccc(Cl)cc1Cl`, the GI50 in the test with A549, in the test with ACHN, in the test with HL-60, with HOP-62, in the test with HOP-92 and in the test with IGROV-1 was > 100 µM (inactive) in each case. Besides, the GI50 in the test on KM12, in the test on M19-MEL, in the test with Malme-3M, in the test on NCI-H23, in the test on OVCAR-5 and with RPMI-8226 was > 100 µM (inactive) in each case. The GI50 in the test with SK-MEL-28 was > 100 µM (inactive); in the test with SNB-75, > 100 µM (inactive); with U-251, 39.6 µM (inactive); in the test on UACC-257, > 100 µM (inactive).

On to `CC(=O)OC1CC2Oc3ccc(C)cc3C(C)(O2)C1=O` (configuration not stated), for which the GI50 with A549, in the test with ACHN, in the test on HL-60, with HOP-62, with IGROV-1 and in the test with KM12 was > 100 µM (inactive) each time. Moreover, the GI50 with LOX IMVI, in the test on M19-MEL, with Malme-3M, in the test with NCI-H23, in the test with RPMI-8226 and in the test with SK-MEL-28 was > 100 µM (inactive) throughout. Besides, the GI50 was 51.1 µM (inactive) in the test on SNB-75, > 100 µM (inactive) in the test with U-251 and > 100 µM (inactive) in the test with UACC-257.

On to `CC(=O)OCCOCNC(=S)N/N=C(\C)c1cnccn1`, for which the GI50 in the test on A549 is 24.5 µM (inactive); in the test on ACHN, 13.6 µM (inactive); in the test with HL-60, 15.7 µM (inactive); with HOP-62, 27.4 µM (inactive); in the test on IGROV-1 it was 26.9 µM (inactive); with KM12 it was 43.3 µM (inactive). For the same molecule, the GI50 in the test on LOX IMVI is 57.1 µM (inactive); in the test on M19-MEL, 15.9 µM (inactive); with Malme-3M it was 30.2 µM (inactive); in the test with NCI-H23, 58.2 µM (inactive); in the test with OVCAR-5, 7.53 µM (inactive); in the test with RPMI-8226, 42.4 µM (inactive). In addition, the GI50 was 42.5 µM (inactive) with SK-MEL-28, 33.5 µM (inactive) in the test on SNB-75, 29.6 µM (inactive) with U-251 and 43.1 µM (inactive) in the test on UACC-257.

Consider `COc1cccc(/C(Cl)=C(\C=O)c2cccc(OC)c2)c1`, for which the GI50 in the test on A549 was 12.1 µM (inactive); in the test with ACHN it was 6.9 µM (inactive); in the test on HL-60 it was 2.69 µM (inactive); with HOP-62 it was 12.3 µM (inactive); in the test with HOP-92, 12.4 µM (inactive); with IGROV-1, 21 µM (inactive). Also, the GI50 was 12.8 µM (inactive) in the test on KM12; 6.71 µM (inactive) in the test on LOX IMVI; 12.7 µM (inactive) with M19-MEL; 0.946 µM (active) with Malme-3M; 5.77 µM (inactive) in the test on NCI-H23; 19.6 µM (inactive) in the test with OVCAR-5. In addition, the GI50 with RPMI-8226 is 4.62 µM (inactive); in the test on SK-MEL-28, 11.7 µM (inactive); with SNB-75 it was 8.24 µM (inactive); in the test on U-251, 10.1 µM (inactive); with UACC-257, 15.3 µM (inactive).

For the molecule `COC1(OC)CCC2C1C1CCC(OC)(OC)C21` (configuration not stated), the GI50 in the test with A549, with ACHN, in the test on HL-60, in the test on HOP-62, in the test with HOP-92 and with IGROV-1 was > 50 µM (inactive) each time. Moreover, the GI50 in the test with KM12, with M19-MEL, with Malme-3M, with NCI-H23, in the test on OVCAR-5 and in the test with RPMI-8226 was > 50 µM (inactive) in each case. Besides, the GI50 with SK-MEL-28, with SNB-75, in the test on U-251 and in the test with UACC-257 was > 50 µM (inactive) throughout.

For the molecule `Cc1nsc2cc(Cl)n(C)c(=O)c12`, the GI50 is > 100 µM (inactive) with A549; > 100 µM (inactive) in the test with ACHN; > 100 µM (inactive) in the test with HL-60; > 100 µM (inactive) with HOP-62; 59.7 µM (inactive) in the test on HOP-92; > 100 µM (inactive) in the test with IGROV-1. Also, the GI50 in the test on KM12, in the test with LOX IMVI, in the test with M19-MEL, in the test with Malme-3M, in the test with NCI-H23 and in the test on OVCAR-5 was > 100 µM (inactive) throughout. Also, the GI50 in the test with RPMI-8226 was > 100 µM (inactive); in the test with SK-MEL-28, > 100 µM (inactive); in the test on SNB-75 it was 66.4 µM (inactive); in the test with U-251 it was > 100 µM (inactive); with UACC-257 it was > 100 µM (inactive).

`COC12CCC(C(C(=O)c3ccccc3)=C1C(=O)c1ccccc1)C(O)C2` (configuration not stated): the GI50 with A549, with HL-60, in the test on HOP-62, in the test on HOP-92, with IGROV-1 and with KM12 was > 100 µM (inactive) throughout. Besides, the GI50 in the test on M19-MEL, in the test with Malme-3M, in the test with NCI-H23, with RPMI-8226, with SK-MEL-28 and in the test on SNB-75 was > 100 µM (inactive) throughout. The GI50 in the test on UACC-257 is > 100 µM (inactive).

For the molecule `CC(=O)OCC1OC(n2ccc(=O)[nH]c2=O)C(OC(C)=O)C(OC(C)=O)C1OC(C)=O` (configuration not stated), the GI50 was > 100 µM (inactive) in the test with A549; > 100 µM (inactive) with ACHN; > 10 µM (inactive) with HL-60; > 100 µM (inactive) in the test with HOP-62; > 100 µM (inactive) in the test with HOP-92; > 100 µM (inactive) in the test on IGROV-1. In addition, the GI50 in the test with KM12, in the test with LOX IMVI, in the test on M19-MEL, in the test on Malme-3M, with NCI-H23 and with OVCAR-5 was > 100 µM (inactive) in each case. The GI50 was > 100 µM (inactive) with RPMI-8226; > 100 µM (inactive) in the test with SK-MEL-28; 50.6 µM (inactive) with SNB-75; > 100 µM (inactive) in the test on U-251; > 100 µM (inactive) in the test on UACC-257.

As for `c1ccc2c(C3NCCc4nc[nH]c43)cccc2c1` (configuration not stated), the GI50 with A549, in the test with ACHN, with HOP-62, with HOP-92, in the test with IGROV-1 and with KM12 was > 100 µM (inactive) each time. Also, the GI50 with LOX IMVI, with M19-MEL, in the test on NCI-H23, in the test with OVCAR-5, with RPMI-8226 and in the test with SK-MEL-28 was > 100 µM (inactive) each time. The GI50 in the test with SNB-75, with U-251 and in the test with UACC-257 was > 100 µM (inactive) each time.
